# In patent publication US9217016B2, “Hyaluronic acid-binding synthetic peptidoglycans, preparation, and methods of use” (SYMIC IP, LLC, priority 2011, dated 2015):
# Ends that are not written are not given here.
# Key:
# [1] = system: Hyaluronidase (Type II from Sheep Testes); assay: Protection of hyaluronic acid from hyaluronidase degradation (dynamic viscosity); type: biochemical; settings: 0.5 wt % HA, 75:1 treatment to HA molar ratio
# Experimental: Dynamic viscosity values of HA solutions were determined using the AR-G2. High molecular weight HA solutions have a large viscosity due to the extensive chain entanglement caused by the long chain length. Hyaluronidase (Type II from Sheep Testes, Sigma) cleaves the HA chain, creating shorter chains with less entanglement. The shorter HA chains will have a measurably lower viscosity. HA solutions were incubated with 100 units/mL hyaluronidase. Dynamic viscosities were determined using a time sweep with constant angular frequency and oscillatory stress initially and at 2 and 4-hour timepoints. Samples (at 0.5 wt % HA) consisted of HA, HA+CS, and HA+10.5GAH−CS. The treatment values were added at a 75:1 treatment to HA molar ratio. The percent degradation was calculated for each measurement by dividing the initial viscosity from the difference of the measured viscosity minus the initial viscosity.
# Viscosities of each treatment without hyaluronidase (TES Buffer replaced the hyaluronidase volume) were initially measured and served as the baseline for the percent degradation calculations. The 0 hr timepoint involved the addition of the hyaluronidase, mixing of the solution, pipetting onto the rheometer, and the beginning equilibration operation of the machine. Therefore, the 0 hr timepoint occurred approximately two minutes after the addition of hyaluronidase. […]
# [2] = system: Matrix metalloprotease-I (MMP-I); assay: Collagen protection: degradation of collagen type I in ECM replicates by MMP-I (hydroxyproline assay); type: biochemical; settings: CI + HA + treatment, 50 hr at 37° C.
# Experimental: ECM-based constructs containing collagen alone, collagen+HA+CS, or collagen+HA+10.5GAH−CS were created in 8-well chambered slides as described previously. The final sample volume was 200 μL consisting of 0.8 mg of collagen type I. Matrix metalloprotease-I (MMP-I, R&D Systems, Minneapolis, Minn.) at a concentration of 0.133 mg/mL, was activated following the protocol detailed in the manufacturer's instructions. Briefly, MMP-1, already dissolved in manufacturer's buffer (50 mM Tris, 10 mM CaCl2, 150 mM NaCl, 0.05% Brij-35, pH 7.5), was combined with an equal volume of 25 mM APMA (Sigma) in DMSO at 37° C. for 2 hrs to activate the enzyme. Upon activation, the MMP-1 solution was diluted two fold in water and was added to the sample as a 100 μL supernatant. […] Following hydrolysis, the amount of hydroxyproline (hyp) was analyzed according to the protocol developed by Reddy, et al. (Clin Biochem, 1996, 29: 225-9). […] After the development of the chlorophore, the samples were read on a spectrophotometer at a wavelength of 550 nm. Absorbance readings were compared to those obtained from known concentrations of collagen to determine the amount of collagen remaining in each sample.
# Each replicate sample was constructed with 0.8 mg of CI, and after degradation, the remaining CI amount was determined by the protocol developed by Reddy et al. and converting that to CI amount by a set of CI standards. […]
# [3] = system: Sprague-Dawley rat knee joints; assay: Animal model of osteoarthritis (surgical induction), microCT; type: in vivo, Sprague-Dawley rats; settings: six and eight weeks after OA induction surgery; 10 μl of a 1 μm mAGC weekly starting at week 4
# Experimental: Sprague-Dawley rats (250-300 g) were used for surgery. The patellar tendon, the anterior and posterior cruciate ligaments and the medial, lateral collateral ligaments were transected. The medial and lateral meniscuses were totally menisectomized. The knee joint capsule was repaired with an absorbable suture and the skin was closed with a 4-0 monofilament nylon. Starting at week 4, 10 μl of a 1 μm mAGC was administered weekly.
# The extent of inflammation was indicated by the MMP-13 probe (FIG. 18) in Sprague-Dawley rats treated with and without peptidoglycan at four, six and eight weeks post surgery (FIG. 19). […] Injured knees 6 weeks and 8 weeks following OA induction, (FIG. 21, Panels A and D, respectively), injured knees following peptidoglycan treatment (FIG. 21, Panels B and E, respectively), and Normal knee (FIG. 21, Panel C), are shown.
# [4] = system: bovine chondrocytes in collagen scaffolds; assay: In vitro inflammation model: CS release into media (DMMB assay); type: cell-based; settings: cumulative over eight-day culture, with and without 20 ng/mL IL-1β, versus scaffolds with CS
# Experimental: (§1) Collagen scaffolds seeded with chondrocytes were stimulated with IL-1β and assessed for degradation products.
# (§2) Primary chondrocytes were harvested from three-month-old bovine knee joints obtained from an abattoir within 24 hours of slaughter (Dutch Valley Veal). Cartilage slices, 150-200 μm thick, were shaved from the lateral femoral condyle and washed three times in serum-free DMEM/F-12 medium (50 μg/mL ascorbic acid 2-phosphate, 100 μg/mL sodium pyruvate, 0.1% bovine serum albumin, 100 units/mL penicillin, 100 μg/mL streptomycin and 25 mM HEPES) prior to digestion with 3% fetal bovine serum (FBS) and 0.2% collagenase-P (Roche Pharmaceuticals) at 37° C. for six hours. Released chondrocytes were filtered through 70 μm cell strainer and centrifuged at 1000 rpm three times for five minutes each in medium listed above supplemented with 10% FBS. The cell pellet was resuspended in 10% FBS supplemented media and plated on 10 cm dishes at 10,000 cells/mL in a 37° C., 5% CO2 humidified incubator until confluent. […]
# (§3) GAG degradation was monitored by measuring CS released in cell culture media using the dimethylmethylene blue (DMMB) dye assay and computed with a chondroitin-6-sulfate standard curve. Similarly, type I collagen degradation in cell culture media was monitored using the Sircol Collagen Assay using manufacturer specified protocols (Bio-Color). […]
# [5] = system: bovine chondrocytes in collagen scaffolds; assay: In vitro inflammation model: collagen breakdown (Sircol assay); type: cell-based; settings: cumulative over eight-day culture, with and without 20 ng/mL IL-1β, versus scaffolds with CS
# Experimental: as §1, §2, §3
# aggrecan = assay: Real-time PCR, aggrecan expression; type: cell-based, bovine; settings: chondrocytes in collagen scaffolds with versus without mAGC
# Experimental: (§4) Following the cell culture study, constructs were stored in RNAlater solution (Ambion) at 4° C. for less than one week. Total mRNA was extracted using Nucleospin RNA II (Clontech) according to manufacturer's protocols. Extracted mRNA from all samples was quantified using Nanodrop 2000 spectrophotometer (Thermo Scientific) and reverse transcribed into cDNA using High Capacity cDNA Reverse Transcriptase Kit (Applied Biosystems). Real-time PCR was performed using Taqman Gene Expression Assays (Applied Biosystems) with the following primers: GAPDH (Bt03210913_gl), aggrecan (Bt03212186_ml) and collagen type II (Bt03251861_ml). 60 ng of cDNA template was prepared per 20 μL reaction for the two genes of interest and the endogenous gene. Real-time PCR analysis was carried out using a Taqman PCR Master Mix and 7500 Real-Time PCR System (Applied Biosystems). Data reported was normalized to GAPDH gene expression.
# collagen type II = assay: Real-time PCR, collagen type II expression; type: cell-based, bovine
# Experimental: as §4
# [6] = Diffusion of peptidoglycans through cartilage matrix (avidin-biotin stain); settings: aggrecan-depleted bovine cartilage explant, 10 μM diffused through articular surface for one hour
# Experimental: Cartilage explants were obtained from the load bearing region of three month old bovine knee joints. Native aggrecan was removed from harvested cartilage explants leaving a matrix consisting primarily of type II collagen and residual GAG. This was achieved by treating explants with 0.5% (w/v) trypsin in HBSS for 3 hours at 37° C. (FIG. 13). After trypsin treatment explants were washed three times in HBSS and incubated with 20% FBS to inactivate residual trypsin activity. Peptidoglycan was dissolved in distilled water at 10 μM concentration and diffused through the articular surface of cartilage explants by placing 10 μL of the solution on the surface every ten minutes for one hour at room temperature (FIG. 14). Normal cartilage and aggrecan depleted cartilage were treated with 1×PBS as positive and negative controls respectively. After diffusion, explants were washed three times with 1×PBS and stored at −20° C. until further testing. Diffusion of peptidoglycan was confirmed by staining a midsagittal section of the tissue with streptavidin-horseradish peroxidase stain. The streptavidin stain binds to the biotin labeled molecule and is depicted as a brown color (FIGS. 15 and 16).
substance,measurement,setting,value
chondroitin sulfate [CS],percent degradation of HA,[1]; 0 hr timepoint (about 2 min after hyaluronidase),almost complete degradation
same,percent degradation of HA,[1]; 2 hr timepoint,above 90%
same,percent degradation of CI,[2],74.7%
mAGC: HA binding peptidoglycan (aggrecan mimic): GAHWQFNALTVRGGGC (SEQ ID NO: 35) peptides attached to chondroitin sulfate; peptide number not stated (also: attached to chondroitin sulfate),cartilage by MicroCT,[3],re-growth of new cartilage
same,amount of CS released into cell culture media,[4],significantly decreased
same,amount of collagen released into cell culture media,[5],significantly decreased
same,aggrecan expression (normalized to GAPDH),aggrecan,lower aggrecan expression
same,level of collagen type II expression (normalized to GAPDH),collagen type II; aligned collagen scaffolds,higher in scaffolds prepared with mAGC
same,level of collagen type II expression (normalized to GAPDH),collagen type II; unaligned scaffolds,higher in scaffolds prepared without mAGC
mAG(II)C: Collagen type II binding peptidoglycan with peptide WYRGRLGC (SEQ ID NO: 36) (also: attached to glycosaminoglycan backbone),depth of penetration into tissue,[6],approximately 200 um
